For 14 compounds, IC50 results are on record in patent publication US8129371B2, “Thienopyrimidine and pyrazolopyrimidine compounds and their use as mTOR kinase and PI3 kinase inhibitors” (Wyeth LLC, priority 2007, dated 2012).

Read-outs that look alike come from different tables or passages of the source.

In one assay the test system is breast line MDA468. As to the kind of experiment: In vitro cell culture growth assay (MTS), MDA468. Format: cell-based. The settings on record: Homo sapiens, 72 h, MDA468 cells, three days after drug treatment. In a few lines:
(§1)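 Viable cell density is assessed three days after inhibitor addition via MTS conversion, normalised to vehicle-treated cells.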

Assay [1] deals with T1, PI3K (Homo sapiens, UniProt P48736).
T1 construct: PI3 Kinase γ IC50; other: PI3 Kinase γ; other: PI3 Kinase γ isoform, fluorescence polarization
As to the kind of experiment: Fluorescence polarization assay for PI3K. Format: biochemical. The settings on record: read-out: PI3 Kinase γ IC50. In a few lines: (§2)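 Fluorescence-polarization competition readout: after 30–60 min of PIP2/ATP turnover in 1% DMSO, a stop mix with GST-GRP (70 nM) and red probe (10 nM) was added.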

Assay [2] has as its target T2, PI3K (Homo sapiens, UniProt P42336).
T2 construct: PI3 Kinase α IC50; other: PI3 Kinase α; other: PI3 Kinase α isoform, fluorescence polarization
In words: Fluorescence polarization assay for PI3K. Format: biochemical. The settings on record: read-out: PI3 Kinase α IC50. In a few lines:
as §2

Another assay concerns the target T3, Human mTOR (FLAG-TOR) (Homo sapiens, UniProt P42345).
T3 construct: FLAG
As to the kind of experiment: Human mTOR kinase assay with purified enzyme, DELFIA format. Format: biochemical. An outline of the steps:
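DELFIA readout: Eu-anti-P(T389)-S6K antibody (40 ng/mL, 1 h) on captured His6-S6K from the stopped reaction. Kinase step used purified FLAG-tagged human mTOR with test compound in HEPES (pH 7.4)/MnCl2/DTT buffer, 2 h at room temperature (linear 1–6 h), terminated by EDTA/EGTA.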

Another assay relates to prostate line LNCap. In words: In vitro cell culture growth assay (MTS), LNCap. The settings on record: Homo sapiens, LNCaP, 72 h, LNCap cells, three days after drug treatment. Format: cell-based. An outline of the steps:
as §1

T2 sequence (P42336 whole entry, canonical isoform): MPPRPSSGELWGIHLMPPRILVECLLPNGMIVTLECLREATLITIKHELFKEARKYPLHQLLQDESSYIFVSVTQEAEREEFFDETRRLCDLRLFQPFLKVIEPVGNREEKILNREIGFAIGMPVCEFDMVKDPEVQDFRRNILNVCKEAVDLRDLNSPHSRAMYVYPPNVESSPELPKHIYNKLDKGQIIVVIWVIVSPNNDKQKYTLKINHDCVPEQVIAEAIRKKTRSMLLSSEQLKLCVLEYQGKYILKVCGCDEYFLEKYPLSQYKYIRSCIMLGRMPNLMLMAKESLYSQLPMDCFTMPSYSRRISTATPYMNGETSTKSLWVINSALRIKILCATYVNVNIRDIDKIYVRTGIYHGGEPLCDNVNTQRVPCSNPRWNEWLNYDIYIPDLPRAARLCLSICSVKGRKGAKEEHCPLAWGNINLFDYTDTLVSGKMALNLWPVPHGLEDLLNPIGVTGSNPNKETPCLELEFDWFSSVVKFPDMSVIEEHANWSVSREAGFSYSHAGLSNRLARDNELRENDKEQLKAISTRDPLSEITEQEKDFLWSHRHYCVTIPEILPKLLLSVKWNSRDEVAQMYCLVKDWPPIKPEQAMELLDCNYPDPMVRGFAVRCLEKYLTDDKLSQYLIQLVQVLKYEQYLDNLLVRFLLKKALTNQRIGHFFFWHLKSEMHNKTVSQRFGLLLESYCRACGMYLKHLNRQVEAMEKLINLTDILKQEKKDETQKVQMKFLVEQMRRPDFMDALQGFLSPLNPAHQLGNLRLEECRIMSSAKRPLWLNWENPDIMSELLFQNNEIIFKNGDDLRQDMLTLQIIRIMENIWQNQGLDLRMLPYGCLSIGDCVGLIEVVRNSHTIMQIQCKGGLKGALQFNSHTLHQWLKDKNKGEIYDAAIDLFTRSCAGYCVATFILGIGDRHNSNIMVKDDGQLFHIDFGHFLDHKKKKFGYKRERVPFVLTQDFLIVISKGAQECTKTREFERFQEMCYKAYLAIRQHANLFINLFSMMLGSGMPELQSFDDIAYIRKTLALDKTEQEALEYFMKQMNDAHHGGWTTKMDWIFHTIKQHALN
T1 sequence (P48736 whole entry, canonical isoform): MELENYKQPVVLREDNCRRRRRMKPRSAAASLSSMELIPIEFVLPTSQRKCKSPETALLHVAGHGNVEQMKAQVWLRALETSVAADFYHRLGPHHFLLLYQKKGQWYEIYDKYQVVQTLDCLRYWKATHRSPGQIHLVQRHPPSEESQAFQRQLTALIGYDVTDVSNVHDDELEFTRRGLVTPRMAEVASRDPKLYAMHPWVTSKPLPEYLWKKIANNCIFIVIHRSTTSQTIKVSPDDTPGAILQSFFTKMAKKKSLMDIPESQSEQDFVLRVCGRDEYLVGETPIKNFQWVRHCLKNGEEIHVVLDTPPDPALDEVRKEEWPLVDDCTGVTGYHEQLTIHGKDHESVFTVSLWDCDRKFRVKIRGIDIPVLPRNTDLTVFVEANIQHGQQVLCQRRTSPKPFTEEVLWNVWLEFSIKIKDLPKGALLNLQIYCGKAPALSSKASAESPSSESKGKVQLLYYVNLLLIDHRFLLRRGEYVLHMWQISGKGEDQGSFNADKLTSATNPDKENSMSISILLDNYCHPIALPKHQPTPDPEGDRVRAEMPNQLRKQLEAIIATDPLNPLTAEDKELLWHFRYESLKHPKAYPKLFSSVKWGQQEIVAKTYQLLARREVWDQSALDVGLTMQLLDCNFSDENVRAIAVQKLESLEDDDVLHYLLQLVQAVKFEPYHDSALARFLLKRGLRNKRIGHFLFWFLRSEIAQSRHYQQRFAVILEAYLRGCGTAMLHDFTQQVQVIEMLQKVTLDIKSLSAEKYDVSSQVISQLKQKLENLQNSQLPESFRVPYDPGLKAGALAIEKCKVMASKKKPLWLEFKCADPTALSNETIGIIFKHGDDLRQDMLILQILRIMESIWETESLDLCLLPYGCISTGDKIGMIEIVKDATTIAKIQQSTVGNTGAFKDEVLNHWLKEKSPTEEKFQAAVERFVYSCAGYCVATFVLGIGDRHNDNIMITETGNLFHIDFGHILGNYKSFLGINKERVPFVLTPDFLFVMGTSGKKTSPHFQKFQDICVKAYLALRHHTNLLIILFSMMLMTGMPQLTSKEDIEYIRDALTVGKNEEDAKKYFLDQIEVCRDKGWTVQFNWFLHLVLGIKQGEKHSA

Turning to `CN(C)CCn1ncc2c(N3CC4CCC(C3)O4)nc(-c3ccc(NC(=O)Nc4cccnc4)cc3)nc21` [Example 157, 1-(4-{1-[2-(dimethylamino)ethyl]-4-(8-oxa-3-azabicyclo[3.2.1]oct-3-yl)-1H-pyrazolo[3,4-d]pyrimidin-6-yl}phenyl)-3-pyridin-3-ylurea], the half-inhibitory concentration (IC50) stood at 220 nM in the assay with breast line MDA468; 3120 nM on PI3K [1] (PI3 Kinase γ); 235 nM at PI3K [2] (PI3 Kinase α); 2.7 nM against Human mTOR (FLAG-TOR); 50 nM with prostate line LNCap.
As for `CCn1nc(CN2CCCC2)c2c(N3CC4CCC(C3)O4)nc(-c3ccc(NC(=O)NC)cc3)nc21` [Example 354, 1-{4-[1-ethyl-4-(8-oxa-3-azabicyclo[3.2.1]oct-3-yl)-3-(pyrrolidin-1-ylmethyl)-1H-pyrazolo[3,4-d]pyrimidin-6-yl]phenyl}-3-methylurea], the IC50 in the assay on breast line MDA468 was 2900 nM; at PI3K [1] (PI3 Kinase γ isoform, fluorescence polarization), over 10000 nM; on PI3K [2] (PI3 Kinase α isoform, fluorescence polarization) it was 2390 nM; against Human mTOR (FLAG-TOR) (purified human mTOR enzyme, DELFIA format), 66.5 nM; in the assay with prostate line LNCap it was 1200 nM.
Consider `CN(C)CCNC(=O)Nc1ccc(-c2nc(N3CC4CCC(C3)O4)c3cnn(C4CCC5(CC4)OCCO5)c3n2)cc1` [Example 133, 1-[2-(dimethylamino)ethyl]-3-{4-[1-(1,4-dioxaspiro[4.5]dec-8-yl)-4-(8-oxa-3-azabicyclo[3.2.1]oct-3-yl)-1H-pyrazolo[3,4-d]pyrimidin-6-yl]phenyl}urea], for which the IC50 with breast line MDA468 was determined as 700 nM; on PI3K [1] (PI3 Kinase γ), 7640 nM; on PI3K [2] (PI3 Kinase α) it was 905 nM; on Human mTOR (FLAG-TOR), 18.5 nM; in the assay with prostate line LNCap, 90 nM.
With `CNC(=O)Nc1ccc(-c2nc(N3CC4CCC(C3)O4)c3cnn(C4CCC(OC)(OC)CC4)c3n2)cc1` [Example 150, 1-{4-[1-(4,4-dimethoxycyclohexyl)-4-(8-oxa-3-azabicyclo[3.2.1]oct-3-yl)-1H-pyrazolo[3,4-d]pyrimidin-6-yl]phenyl}-3-methylurea], the IC50 in the assay with breast line MDA468 is 35 nM; on PI3K [1] (PI3 Kinase γ), over 10000 nM; on PI3K [2] (PI3 Kinase α) it was 648 nM; on Human mTOR (FLAG-TOR), 0.745 nM; with prostate line LNCap, 2 nM.
For `N#CCCn1ncc2c(N3CC4CCC(C3)O4)nc(-c3ccc(NC(=O)OCCO)cc3)nc21` [Example 213, 2-hydroxyethyl {4-[1-(2-cyanoethyl)-4-(8-oxa-3-azabicyclo[3.2.1]oct-3-yl)-1H-pyrazolo[3,4-d]pyrimidin-6-yl]phenyl}carbamate], the IC50 in the assay with breast line MDA468 was 1000 nM; on PI3K [1] (PI3 Kinase γ), over 10000 nM; on PI3K [2] (PI3 Kinase α) it was 4530 nM; at Human mTOR (FLAG-TOR), 1.25 nM; with prostate line LNCap, 150 nM.
In the same order, the values of `CN1CCN(c2ccc(NC(=O)Nc3ccc(-c4nc(N5C[C@@H]6C[C@H]5CO6)c5cnn(CC(F)(F)F)c5n4)cc3)cc2)CC1` [Example 295, 1-[4-(4-methylpiperazin-1-yl)phenyl]-3-(4-{4-[(1S,4S)-2-oxa-5-azabicyclo[2.2.1]hept-5-yl]-1-(2,2,2-trifluoroethyl)-1H-pyrazolo[3,4-d]pyrimidin-6-yl}phenyl)urea] are 13 nM, 4670 nM, 410 nM, 2.33 nM and 1 nM.
With `CCn1ncc2c(N3CC4CCC(C3)O4)nc(-c3ccc(NC(=O)Nc4ccc(OCCO)nc4)cc3)nc21` [Example 282, 1-{4-[1-ethyl-4-(8-oxa-3-azabicyclo[3.2.1]oct-3-yl)-1H-pyrazolo[3,4-d]pyrimidin-6-yl]phenyl}-3-[6-(2-hydroxyethoxy)pyridin-3-yl]urea], the IC50 in the assay on breast line MDA468 is 21 nM; on PI3K [1] (PI3 Kinase γ) it was 1160 nM; at PI3K [2] (PI3 Kinase α), 166 nM; against Human mTOR (FLAG-TOR), 0.3 nM; in the assay with prostate line LNCap, 5 nM.
The corresponding values for `COC(=O)N1CCC(n2ncc3c(N4CC5CCC(C4)O5)nc(-c4ccc(NC(=O)Nc5ccc(N6CCN(C)CC6)cc5)cc4)nc32)CC1` [Example 166, methyl 4-{6-[4-({[4-(4-methylpiperazin-1-yl)phenyl]carbamoyl}amino)phenyl]-4-(8-oxa-3-azabicyclo[3.2.1]oct-3-yl)-1H-pyrazolo[3,4-d]pyrimidin-1-yl}piperidine-1-carboxylate] are 2 nM, 867 nM, 117 nM, 0.48 nM and under 1 nM.
The corresponding values for `CCNC(=O)Nc1ccc(-c2nc(N3CC4CCC(C3)O4)c3cnn(C4CCN(Cc5cccnc5)CC4)c3n2)cc1` [Example 15, 1-ethyl-3-(4-{4-(8-oxa-3-azabicyclo[3.2.1]oct-3-yl)-1-[1-(pyridin-3-ylmethyl)piperidin-4-yl]-1H-pyrazolo[3,4-d]pyrimidin-6-yl}phenyl)urea] are 85 nM, over 10000 nM, 2280 nM, 0.31 nM and 4 nM.
In the same order, the values of `COC(=O)N1CCC(n2ncc3c(N4CC5CCC(C4)O5)nc(-c4ccc(N)cc4)nc32)CC1` [Example 120, methyl 4-[6-(4-aminophenyl)-4-(8-oxa-3-azabicyclo[3.2.1]oct-3-yl)-1H-pyrazolo[3,4-d]pyrimidin-1-yl]piperidine-1-carboxylate] are 6900 nM, over 10000 nM, 7920 nM, 69 nM and 950 nM.
Regarding `CCn1ncc2c(N3CC4CCC(C3)O4)nc(-c3ccc(NC(=O)Nc4ccc(C(=O)NN5CCCC5)cc4)cc3)nc21` [Example 290, 4-[({4-[1-ethyl-4-(8-oxa-3-azabicyclo[3.2.1]oct-3-yl)-1H-pyrazolo[3,4-d]pyrimidin-6-yl]phenyl}carbamoyl)amino]-N-pyrrolidin-1-ylbenzamide], the IC50 is 4 nM in the assay on breast line MDA468; 757 nM at PI3K [1] (PI3 Kinase γ); 102 nM on PI3K [2] (PI3 Kinase α); 0.175 nM against Human mTOR (FLAG-TOR); under 1 nM in the assay on prostate line LNCap.
The corresponding values for `N#CCCn1ncc2c(N3CC4CCC(C3)O4)nc(-c3ccc(NC(=O)Nc4ccc(N5CCOCC5)nc4)cc3)nc21` [Example 223, 1-{4-[1-(2-cyanoethyl)-4-(8-oxa-3-azabicyclo[3.2.1]oct-3-yl)-1H-pyrazolo[3,4-d]pyrimidin-6-yl]phenyl}-3-(6-morpholin-4-ylpyridin-3-yl)urea] are 21 nM, over 10000 nM, 1660 nM, 0.265 nM and 10 nM.
The corresponding values for `CCn1ncc2c(N3CC4CCC(C3)O4)nc(-c3ccc(NC(=O)Nc4ccc(N5CCNCC5)cc4)cc3)nc21` [Example 288, 1-{4-[1-ethyl-4-(8-oxa-3-azabicyclo[3.2.1]oct-3-yl)-1H-pyrazolo[3,4-d]pyrimidin-6-yl]phenyl}-3-(4-piperazin-1-ylphenyl)urea] are 50 nM, 534 nM, 53 nM, 0.575 nM and under 1 nM.
The corresponding values for `O=C(Nc1ccccc1)Nc1ccc(-c2nc(N3CC4CCC(C3)O4)c3cnn(C4CCC5(CC4)OCCO5)c3n2)cc1` [Example 127, 1-{4-[1-(1,4-dioxaspiro[4.5]dec-8-yl)-4-(8-oxa-3-azabicyclo[3.2.1]oct-3-yl)-1H-pyrazolo[3,4-d]pyrimidin-6-yl]phenyl}-3-phenylurea] are 18 nM, over 10000 nM, 353 nM, 0.155 nM and 4 nM.
